# Measured values as given in patent publication US11207360B2, “Composition for the treatment of dysbiosis of the intestinal microbiota” (NUTRAVIS S.R.L., priority 2017, dated 2021).
# What was measured:
# Assay type in all cases: cell-based
# Conditions in all cases: liposomes containing 1 mg beta-carotene, 24 hours at 37° C.
# Bacillus coagulans = assay: Abscisic acid (ABA) production by Bacillus coagulans culture incubated with carotenoid liposomes, ABA ELISA
# Description: Lyophilized probiotics were grown separately in LB medium in shake-flasks equipped with vented cap at 37° C. for 24 hours. After growth, each probiotic suspension was diluted with LB medium to reach approximately 0.1 O.D. at 600 nm. 3.5 ml of each diluted suspension was added with 500 μl of: i) empty liposomes, […] iii) liposomes containing 0.1 mg xanthophyll, iv) both liposomes containing carotene and xanthophyll, and incubated with shaking at 350 rpm at 37° C. for 24 hours. At the end of the incubation, each probiotic suspension was pelleted by centrifugation at 3000×g for 10 minutes. Supernatant was recovered, added with 4 vol of methanol and stored at −20° C. for 24 hours. Pellet was washed once with saline buffer, centrifuged at 3000×g for 10 minutes, resuspended in 2 ml of methanol, sonicated in ice and stored at −20° C. for 24 hours. 4 mg of carotene and 0.4 mg of xanthophyll were dissolved each in 200 μl of chloroform by vortexing. For each liposome preparation 200 mg of lecithin were dissolved in 500 μl of chloroform. Both carotene and xanthophyll chloroform solutions were added, separately, to the chloroform lecithin solution, vortexed, and completely dried with N2 to create a thin layer on the inner wall of a glass Corex. […] Quantification of abscisic acid (ABA) was performed on both pellets and supernatants obtained as described above (see Bacterial cell culture). […]
# [1] = system: Bacillus coagulans, Lactobacillus Plantarum; assay: Abscisic acid production by culture of Bacillus coagulans and Lactobacillus Plantarum incubated with liposomes, ABA ELISA
# Description: (§1) Lyophilized probiotics were grown separately in LB medium in shake-flasks equipped with vented cap at 37° C. for 24 hours. After growth, each probiotic suspension was diluted with LB medium to reach approximately 0.1 O.D. at 600 nm. 3.5 ml of each diluted suspension was added with 500 μl of:
# (§2) ii) liposomes containing 1 mg carotene,
# (§3) iii) liposomes containing 0.1 mg xanthophyll,
# (§4) iv) both liposomes containing carotene and xanthophyll, and
# (§5) incubated with shaking at 350 rpm at 37° C. for 24 hours.
# (§6) At the end of the incubation, each probiotic suspension was pelleted by centrifugation at 3000×g for 10 minutes. Supernatant was recovered, added with 4 vol of methanol and stored at −20° C. for 24 hours. Pellet was washed once with saline buffer, centrifuged at 3000×g for 10 minutes, resuspended in 2 ml of methanol, sonicated in ice and stored at −20° C. for 24 hours.
# (§7) 4 mg of carotene and 0.4 mg of xanthophyll were dissolved each in 200 μl of chloroform by vortexing. For each liposome preparation 200 mg of lecithin were dissolved in 500 μl of chloroform. Both carotene and xanthophyll chloroform solutions were added, separately, to the chloroform lecithin solution, vortexed, and completely dried with N2 to create a thin layer on the inner wall of a glass Corex. […]
# (§8) Quantification of abscisic acid (ABA) was performed on both pellets and supernatants obtained as described above (see Bacterial cell culture). […]
# Lactobacillus Rhamnosus = assay: Abscisic acid production by Lactobacillus Rhamnosus culture incubated with liposomes, ABA ELISA
# Description: as §1, §2, §3, §4, §5, §6, §7, §8
structure (smiles),measurement,setting,value
CC1=C(/C=C/C(C)=C/C=C/C(C)=C/C=C/C=C(C)/C=C/C=C(C)/C=C/C2=C(C)CCCC2(C)C)C(C)(C)CCC1 [beta-carotene],"production of abscisic acid, times higher than culture with empty liposomes (FIG. 2)",Bacillus coagulans,about 5 times
same,"production of abscisic acid, times higher than culture with empty liposomes (FIG. 1A)",Bacillus coagulans; p=0.0093,about 6.6 times
same,"production of abscisic acid, times higher than culture with empty liposomes (FIG. 1B)",[1],about 7.5 times
same,"production of abscisic acid, times higher than culture with empty liposomes (FIG. 1C)",Lactobacillus Rhamnosus,about 20 times
